From PMC8792198 (Journal of pharmaceutical sciences, 2021)
Where “and” joins values, the source holds several entries; their conditions need not be identical. Identical values can stand only once. Values belong to the molecule of their own block, whether it stands above or below them.

Assays:
[1] = molecular target: OATP5A1 (Homo sapiens, UniProt Q9H2Y9); experiment: Uptake into HEK293 cells stably overexpressing OATP5A1; format: in vitro ADME; details: for transport by OATP5A1 in HEK293-OATP5A1 cells: pH 7.4
Sequence of OATP5A1 (Q9H2Y9 whole entry): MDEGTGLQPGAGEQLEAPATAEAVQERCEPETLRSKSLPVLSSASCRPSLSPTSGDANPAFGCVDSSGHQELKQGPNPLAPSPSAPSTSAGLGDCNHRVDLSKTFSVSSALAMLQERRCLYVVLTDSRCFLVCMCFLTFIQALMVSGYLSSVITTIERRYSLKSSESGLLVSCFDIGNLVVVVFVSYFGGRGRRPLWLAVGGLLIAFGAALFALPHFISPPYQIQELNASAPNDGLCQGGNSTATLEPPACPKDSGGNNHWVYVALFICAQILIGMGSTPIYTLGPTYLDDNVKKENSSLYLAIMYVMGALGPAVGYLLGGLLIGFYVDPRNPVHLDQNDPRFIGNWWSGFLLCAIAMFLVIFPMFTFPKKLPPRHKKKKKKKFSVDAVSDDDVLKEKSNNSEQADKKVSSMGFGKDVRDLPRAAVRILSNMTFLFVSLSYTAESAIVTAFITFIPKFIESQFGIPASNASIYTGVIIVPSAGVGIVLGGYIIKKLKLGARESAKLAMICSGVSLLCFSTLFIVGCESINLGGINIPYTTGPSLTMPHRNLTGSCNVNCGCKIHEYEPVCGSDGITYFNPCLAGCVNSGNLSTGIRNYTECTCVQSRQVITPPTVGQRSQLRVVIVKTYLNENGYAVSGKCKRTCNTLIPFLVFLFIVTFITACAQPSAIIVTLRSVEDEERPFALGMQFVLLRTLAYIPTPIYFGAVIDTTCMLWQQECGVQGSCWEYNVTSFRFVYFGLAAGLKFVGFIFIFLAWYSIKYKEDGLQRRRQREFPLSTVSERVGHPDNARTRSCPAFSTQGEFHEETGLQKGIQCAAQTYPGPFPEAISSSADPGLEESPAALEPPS

[2] = tested on: placental BM vesicles; details: cited from earlier work
[3] = tested on: placental BM vesicles; experiment: Glutarate-stimulated uptake of pravastatin by placental BM vesicles; format: in vitro ADME, human
[4] = tested on: placental AM vesicles; experiment: Glutarate-stimulated uptake of pravastatin by placental AM vesicles; format: in vitro ADME, human; details: 1 μM [3H]Pravastatin, 37°C
[5] = molecular target: T1, OATP2A1 (Homo sapiens, UniProt Q92959); experiment: Uptake into HEK293 cells stably overexpressing OATP2A1; format: in vitro ADME; details: 1 min
[6] = molecular target: T2, OATP1A2 (Homo sapiens, UniProt P46721); experiment: Uptake into HEK293 cells transiently overexpressing OATP1A2; format: in vitro ADME
T2 sequence (P46721 1-670): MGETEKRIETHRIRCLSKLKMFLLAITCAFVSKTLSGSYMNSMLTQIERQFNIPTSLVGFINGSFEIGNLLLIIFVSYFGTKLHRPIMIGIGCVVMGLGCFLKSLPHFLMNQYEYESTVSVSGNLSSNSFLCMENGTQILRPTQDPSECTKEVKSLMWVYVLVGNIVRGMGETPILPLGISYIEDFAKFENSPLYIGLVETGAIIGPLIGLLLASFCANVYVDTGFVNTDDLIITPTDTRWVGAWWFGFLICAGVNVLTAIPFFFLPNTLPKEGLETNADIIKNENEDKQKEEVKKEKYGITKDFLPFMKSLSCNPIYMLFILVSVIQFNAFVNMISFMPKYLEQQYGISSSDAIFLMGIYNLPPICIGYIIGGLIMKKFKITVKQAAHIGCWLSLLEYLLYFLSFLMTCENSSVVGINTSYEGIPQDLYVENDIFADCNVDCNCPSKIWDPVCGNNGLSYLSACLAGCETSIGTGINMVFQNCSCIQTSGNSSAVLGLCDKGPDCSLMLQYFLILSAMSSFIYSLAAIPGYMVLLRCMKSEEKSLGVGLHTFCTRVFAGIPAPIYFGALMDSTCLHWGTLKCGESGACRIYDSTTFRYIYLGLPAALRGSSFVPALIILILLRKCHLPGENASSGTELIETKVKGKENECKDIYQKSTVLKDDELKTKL

[7] = molecular target: T3, OAT4 (Homo sapiens, UniProt Q9NSA0); experiment: OAT4-mediated efflux of preloaded pravastatin from T-REx-OAT4-293 cells; format: in vitro ADME
T3 sequence (Q9NSA0 1-550): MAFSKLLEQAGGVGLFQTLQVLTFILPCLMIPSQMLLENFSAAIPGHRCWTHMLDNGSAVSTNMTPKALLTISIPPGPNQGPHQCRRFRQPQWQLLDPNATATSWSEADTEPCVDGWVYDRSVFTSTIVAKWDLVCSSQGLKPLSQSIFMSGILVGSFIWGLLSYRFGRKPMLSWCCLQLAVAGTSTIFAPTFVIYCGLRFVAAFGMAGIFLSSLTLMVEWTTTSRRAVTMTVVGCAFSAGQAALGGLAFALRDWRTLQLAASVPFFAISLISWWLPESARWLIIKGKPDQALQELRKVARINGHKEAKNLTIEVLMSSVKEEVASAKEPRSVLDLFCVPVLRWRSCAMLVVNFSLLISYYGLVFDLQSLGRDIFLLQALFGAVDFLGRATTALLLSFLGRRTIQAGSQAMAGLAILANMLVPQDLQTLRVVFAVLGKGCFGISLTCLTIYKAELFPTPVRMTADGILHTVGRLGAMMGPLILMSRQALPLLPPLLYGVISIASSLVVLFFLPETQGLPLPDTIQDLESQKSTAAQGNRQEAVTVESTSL

[8] = molecular target: T4, OATP2B1 (Homo sapiens, UniProt O94956)
T4 sequence (O94956 1-709): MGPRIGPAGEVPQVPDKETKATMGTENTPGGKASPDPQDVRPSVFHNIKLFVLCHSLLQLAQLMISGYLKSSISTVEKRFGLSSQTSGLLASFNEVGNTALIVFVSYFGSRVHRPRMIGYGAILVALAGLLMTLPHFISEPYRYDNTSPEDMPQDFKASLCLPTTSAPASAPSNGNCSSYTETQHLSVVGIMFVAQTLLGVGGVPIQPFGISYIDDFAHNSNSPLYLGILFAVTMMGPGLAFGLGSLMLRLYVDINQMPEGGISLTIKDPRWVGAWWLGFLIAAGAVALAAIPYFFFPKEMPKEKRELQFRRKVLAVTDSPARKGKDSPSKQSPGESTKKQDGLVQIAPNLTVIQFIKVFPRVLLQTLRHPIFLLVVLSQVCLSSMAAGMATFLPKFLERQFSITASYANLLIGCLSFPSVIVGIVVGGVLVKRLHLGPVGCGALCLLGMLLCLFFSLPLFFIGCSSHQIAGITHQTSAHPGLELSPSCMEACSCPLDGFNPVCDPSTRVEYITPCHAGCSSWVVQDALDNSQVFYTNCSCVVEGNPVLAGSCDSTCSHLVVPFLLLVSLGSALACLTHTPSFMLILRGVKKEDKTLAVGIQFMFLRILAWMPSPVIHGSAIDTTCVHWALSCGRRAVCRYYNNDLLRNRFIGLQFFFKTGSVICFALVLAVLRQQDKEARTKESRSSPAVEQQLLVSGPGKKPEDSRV

[9] = tested on: placenta; details: ex vivo placental perfusion; cited from earlier work
[10] = tested on: OAT4; details: S2 cells expressing OAT4, single component saturation kinetics; ref 20 (Nakagomi-Hagihara et al, 2007); cited from earlier work
[11] = pregnant women taking 10 mg daily dose; cited from earlier work
[12] = molecular target: T3, OAT4; experiment: Uptake into tetracycline-inducible T-REx-OAT4-293 cells; details: for Uptake, Net (transporter-mediated) / Uptake, Transporter-expressing cells: OAT4, 4 μM pravastatin; for Kt / Vmax: OAT4-mediated uptake, physiological pH, 37°C; for Uptake, Control: control cells for OAT4, 4 μM pravastatin
[13] = molecular target: T3, OAT4; experiment: Effect of E3S on OAT4-mediated uptake of pravastatin; format: in vitro ADME; details: E3S (200 μM), 2 μM pravastatin
[14] = molecular target: T1, OATP2A1; details: 2 μM pravastatin
[15] = OATP2A1-mediated uptake, physiological pH, 37°C
[16] = OATP1A2-mediated uptake at pH 6.0
[17] = OATP1A2-mediated uptake, physiological pH, 37°C, 30 s
[18] = GA (glutaric acid preload), 30 s
[19] = higher concentration range (low affinity)

Compound: CCCCC[C@H](O)/C=C/[C@H]1[C@H](O)CC(=O)[C@@H]1C/C=C\CCCC(=O)O [PE2, Prostaglandin-E2]
transport by OATP5A1 in HEK293-OATP5A1 cells [1]: none of the substrates tested, namely pravastatin, E3S, PE2 and fluorescein were found to be transported

Compound: CCCc1nc(C(C)(C)O)c(C(=O)O)n1Cc1ccc(-c2ccccc2-c2nnn[nH]2)cc1 [olmesartan]
increase of the uptake into placental BM vesicles by glutarate trans-stimulation [2]: 33%

Compound: C[C@]12CC[C@H](O)CC1=CC[C@@H]1[C@@H]2CC[C@]2(C)C(=O)[C@H](O)C[C@@H]12 [16α-hydroxydehydroepiandrosterone]
increase of the uptake into placental BM vesicles by glutarate trans-stimulation [2]: 56%

Compound: O=C1OC2(c3ccc(O)cc3Oc3cc(O)ccc32)c2ccccc21 [fluorescein, sodium fluorescein]
transport by OATP5A1 in HEK293-OATP5A1 cells [1]: none of the substrates tested, namely pravastatin, E3S, PE2 and fluorescein were found to be transported

net (glutarate-dependent) uptake into BM vesicles at 4°C ([3]; 4°C, 0.5-2 μM): negligible
glutarate-stimulated uptake into BM vesicles, concentration dependence ([3]; two-fold increase of substrate from 1 μM to 2 μM, 37°C): proportional increase
glutarate-stimulated uptake into AM vesicles [4]: insignificant
Uptake, Transporter-expressing cells ([5]; OATP2A1, 1 μM pravastatin, 37°C, neutral pH): 0.46 ± 0.06 pmol/mg protein/min
Kt [5, 15]: 188 ± 109 µM
Vmax [5, 15]: 73.8 ± 19.2 pmol/mg protein*min^−1
Uptake, Control ([5]; control cells for OATP2A1, 1 μM pravastatin, neutral pH): 0.26 ± 0.06 pmol/mg protein/min
Uptake, Net (transporter-mediated) ([6]; OATP1A2, 0.75 μM [3H]Pravastatin, 30 s, neutral pH): 1.06 ± 0.32 pmol/mg protein/min
Uptake, Transporter-expressing cells ([6]; OATP1A2, 0.75 μM [3H]Pravastatin, 37°C, 30 s, neutral pH): 1.73 ± 0.31 pmol/mg protein/min
apparent Kt [6, 16]: 23.6 ± 2.87 µM
apparent Vmax [6, 16]: 361 ± 29.3 pmol/mg protein*min^−1
Kt [6, 17]: 1.60 ± 0.97 µM
Vmax [6, 17]: 4.08 ± 0.72 pmol/mg protein*min^−1
Uptake, Control ([6]; control cells for OATP1A2, 0.75 μM [3H]Pravastatin, 30 s, neutral pH): 0.66 ± 0.15 pmol/mg protein/min
Uptake, Transporter-expressing cells ([1]; OATP5A1, 10 μM pravastatin, 37°C, 1 min, neutral pH): 1.85 ± 0.18 pmol/mg protein/min
Uptake, Net (transporter-mediated) ([1]; OATP5A1, 10 μM pravastatin, 1 min, neutral pH): 0.23 ± 0.01 pmol/mg protein/min
Uptake, Control ([1]; control cells for OATP5A1, 10 μM pravastatin, 1 min, neutral pH): 1.62 ± 0.18 pmol/mg protein/min
remaining preloaded pravastatin ([7]; OAT4-expressing cells, chloride-free condition, 60 s efflux, preload 4 μM): 39 ± 2%
estimated Ke of the pravastatin efflux ([7]; chloride-free condition, OAT4-expressing cells): 2.1 ± 0.5 10^−2s^−1
estimated Ke of the pravastatin efflux ([7]; chloride-free condition, control cells): 3.6 ± 2.1 10^−2s^−1
estimated Ke of the pravastatin efflux ([7]; presence of extracellular chloride, OAT4-expressing cells): 2.6 ± 0.6 10^−2s^−1
estimated Ke of the pravastatin efflux ([7]; presence of extracellular chloride, control cells): 3.0 ± 1.0 10^−2s^−1
Uptake, Transporter-expressing cells ([8]; OATP2B1, 0.75 μM [3H]Pravastatin, 37°C, 1 min, neutral pH): 0.71 ± 0.13 pmol/mg protein/min
Uptake, Net (transporter-mediated) ([8]; OATP2B1, 0.75 μM [3H]Pravastatin, 1 min, neutral pH): 0.10 ± 0.16 pmol/mg protein/min
Uptake, Control ([8]; control cells for OATP2B1, 0.75 μM [3H]Pravastatin, 1 min, neutral pH): 0.61 ± 0.13 pmol/mg protein/min
Uptake, Net (transporter-mediated) ([12]; 30 s, chloride, no glutarate preload): 2.86 ± 0.27 pmol/mg protein/min
Uptake, Net (transporter-mediated) ([12]; Cl-free uptake buffer, 30 s): 7.15 ± 0.59 pmol/mg protein/min
Uptake, Transporter-expressing cells ([12]; Cl-free uptake buffer, 30 s): 8.66 ± 0.80 ^*^, # pmol/mg protein/min
Uptake, Net (transporter-mediated) [12, 18]: 5.17 ± 0.84 pmol/mg protein/min
Uptake, Transporter-expressing cells [12, 18]: 7.04 ± 0.97 ^*^, # pmol/mg protein/min
Kt [12, 19]: 295 ± 99 µM and 295 ± 99.0 µM
Vmax [12, 19]: 345 ± 54.8 pmol/mg protein*min^−1
Vmax ([12]; lower concentration range (high-affinity)): 42.0 ± 93.4 pmol/mg protein*min^−1
Kt ([12]; lower concentration range (high-affinity), 30 s): 30.5 ± 75.0 µM
Uptake, Control ([12]; Cl-free uptake buffer, 30 s): 1.51 ± 0.24 pmol/mg protein/min
Uptake, Control [12, 18]: 1.87 ± 0.25 pmol/mg protein/min
Compound: CC[C@H](C)C(=O)O[C@H]1C[C@H](O)C=C2C=C[C@H](C)[C@H](CC[C@@H](O)C[C@@H](O)CC(=O)O)[C@H]21 [Pravastatin]
trans-stimulatory effect of glutarate on the uptake into placental BM vesicles (increase) ([3]; BM vesicles, glutarate preload, Fig 1A): 18%
glutarate-stimulated uptake into BM vesicles ([3]; pravastatin concentrations below 1 μM, 37°C): did not detect any glutarate-stimulated uptake
transport by OATP5A1 in HEK293-OATP5A1 cells [1]: none of the substrates tested, namely pravastatin, E3S, PE2 and fluorescein were found to be transported
OATP2B1-mediated uptake ([8]; pH 7.4): did not detect any OATP2B1-mediated uptake
clearance index, direction of transfer [9]: higher in the fetal-to-maternal direction than in the maternal-to-fetal direction
drug crossing the placenta from the maternal to fetal direction [9]: 18 ± 4%
Kt [10]: 257 µM
steady state plasma concentrations [11]: nanomolar range

inhibition of OAT4-mediated uptake of pravastatin [13]: complete inhibition
Compound: C[C@]12CC[C@@H]3c4ccc(OS(=O)(=O)O)cc4CC[C@H]3[C@@H]1CCC2=O [E3S, estrone-3-sulfate]

decrease of the net, OATP2A1-dependent, uptake of pravastatin ([14]; diclofenac 20 μM): 50%
Compound: O=C(O)Cc1ccccc1Nc1c(Cl)cccc1Cl [diclofenac]
effect on uptake of pravastatin into OATP2A1-expressing cells ([14]; diclofenac 200 μM): did not result in a statistically significant decrease
